Paper PMC10104807, “Modulation of tau tubulin kinases (TTBK1 and TTBK2) impacts ciliogenesis” (Scientific Reports, 2023)

Assays:
[1] = biological target: T1, MAP4K5 (Homo sapiens, UniProt Q9Y4K4); test: DiscoverX scanMAX binding assay; conditions: 1 μM
T1 construct: purchased Eurofins
In short: (§1)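 Single-dose (1 µM) binding screen; 403 WT human kinase panel; readout PoC, lower value = stronger displacement.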

[2] = biological target: T2, RIPK5 (Homo sapiens, UniProt Q6XUX3); test: DiscoverX scanMAX binding assay; conditions: 1 μM
T2 construct: purchased Eurofins (radiometric) / Eurofins DiscoverX scanMAX / Reaction Biology / SignalChem
In short: as §1

[3] = tested on: TTBK1; set-up: method as in earlier work; conditions: screened at 1 μM; cited from earlier work
[4] = tested on: TTBK2; set-up: method as in earlier work; conditions: screened at 1 μM; cited from earlier work
[5] = tested on: TTBK1; set-up: method as in PMID 33944571; conditions: read-out: TTBK1 IC50 (Biogen biochemical assay); cited from earlier work
[6] = biological target: T3, CDK11 (Homo sapiens, UniProt Q9BWU1); test: DiscoverX scanMAX binding assay; conditions: 1 μM
T3 construct: purchased Eurofins (radiometric) / Eurofins DiscoverX scanMAX / Reaction Biology / SignalChem
In short: as §1

[7] = biological target: T4, CDK8 (Homo sapiens, UniProt P49336); test: DiscoverX scanMAX binding assay; conditions: 1 μM
T4 construct: purchased Eurofins (radiometric) / Eurofins DiscoverX scanMAX / Reaction Biology / SignalChem
In short: as §1

[8] = biological target: T5, HASPIN (Homo sapiens, UniProt Q8TF76); test: DiscoverX scanMAX binding assay; conditions: 1 μM
T5 construct: purchased Eurofins (radiometric) / Eurofins DiscoverX scanMAX / Reaction Biology / SignalChem
In short: as §1

[9] = Kinetic solubility (Analiza); assay type: physicochemical; conditions: PBS pH 7.4, from 10 mM DMSO stocks
Source text: Calculated solubility values in Table 2 have been corrected for background nitrogen present in the DMSO and media.

[10] = biological target: T6, CDC2L1 (Homo sapiens, UniProt P21127); test: DiscoverX scanMAX binding assay; conditions: 1 μM
T6 construct: purchased Eurofins (radiometric) / Eurofins DiscoverX scanMAX / Reaction Biology / SignalChem
In short: as §1

[11] = biological target: T7, CDC2L2 (Homo sapiens, UniProt Q9UQ88); test: DiscoverX scanMAX binding assay; conditions: 1 μM
T7 construct: purchased Eurofins (radiometric) / Eurofins DiscoverX scanMAX / Reaction Biology / SignalChem
In short: as §1

[12] = biological target: T8, GRK2 (Homo sapiens, UniProt P25098); test: DiscoverX scanMAX binding assay; conditions: 1 μM
T8 construct: purchased Eurofins (radiometric) / Eurofins DiscoverX scanMAX / Reaction Biology / SignalChem
In short: as §1

[13] = biological target: T9, HIPK1 (Homo sapiens, UniProt Q86Z02); test: DiscoverX scanMAX binding assay; conditions: 1 μM
T9 construct: purchased Eurofins (radiometric) / Eurofins DiscoverX scanMAX / Reaction Biology / SignalChem
In short: as §1

[14] = biological target: T10, JAK3(JH1domain-catalytic) (Homo sapiens, UniProt P52333); test: DiscoverX scanMAX binding assay; conditions: 1 μM
T10 construct: JAK3(JH1domain-catalytic); purchased Eurofins (radiometric) / Eurofins DiscoverX scanMAX / Reaction Biology / SignalChem
In short: as §1

[15] = biological target: T11, NIK (Homo sapiens, UniProt Q99558); test: DiscoverX scanMAX binding assay; conditions: 1 μM
T11 construct: purchased Eurofins (radiometric) / Eurofins DiscoverX scanMAX / Reaction Biology / SignalChem
In short: as §1

[16] = biological target: T12, PRKD2 (Homo sapiens, UniProt Q9BZL6); test: DiscoverX scanMAX binding assay; conditions: 1 μM
T12 construct: purchased Eurofins (radiometric) / Eurofins DiscoverX scanMAX / Reaction Biology / SignalChem
In short: as §1

[17] = biological target: T13, PRKD3 (Homo sapiens, UniProt O94806); test: DiscoverX scanMAX binding assay; conditions: 1 μM
T13 construct: purchased Eurofins (radiometric) / Eurofins DiscoverX scanMAX / Reaction Biology / SignalChem
In short: as §1

[18] = biological target: T14, RPS6KA5(Kin.Dom.2-C-terminal) (Homo sapiens, UniProt O75582); test: DiscoverX scanMAX binding assay; conditions: 1 μM
T14 construct: RPS6KA5(Kin.Dom.2-C-terminal); purchased Eurofins (radiometric) / Eurofins DiscoverX scanMAX / Reaction Biology / SignalChem
In short: as §1

[19] = biological target: T15, SNARK (Homo sapiens, UniProt Q9H093); test: DiscoverX scanMAX binding assay; conditions: 1 μM
T15 construct: purchased Eurofins (radiometric) / Eurofins DiscoverX scanMAX / Reaction Biology / SignalChem
In short: as §1

[20] = biological target: T16, TSSK3 (Homo sapiens, UniProt Q96PN8); test: DiscoverX scanMAX binding assay; conditions: 1 μM
T16 construct: purchased Eurofins
T16 sequence (Q96PN8 1-268): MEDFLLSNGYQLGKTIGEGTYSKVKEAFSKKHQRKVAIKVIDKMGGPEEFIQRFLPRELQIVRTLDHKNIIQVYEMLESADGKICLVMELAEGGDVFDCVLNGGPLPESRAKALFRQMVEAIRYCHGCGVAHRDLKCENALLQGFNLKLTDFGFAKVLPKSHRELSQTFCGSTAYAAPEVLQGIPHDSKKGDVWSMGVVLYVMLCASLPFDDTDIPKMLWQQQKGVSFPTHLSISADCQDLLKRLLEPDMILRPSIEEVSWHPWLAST
In short: as §1

[21] = biological target: T17, TYK2(JH1domain-catalytic) (Homo sapiens, UniProt P29597); test: DiscoverX scanMAX binding assay; conditions: 1 μM
T17 construct: TYK2(JH1domain-catalytic); purchased Eurofins (radiometric) / Eurofins DiscoverX scanMAX / Reaction Biology / SignalChem
In short: as §1

T5 sequence (Q8TF76 whole entry): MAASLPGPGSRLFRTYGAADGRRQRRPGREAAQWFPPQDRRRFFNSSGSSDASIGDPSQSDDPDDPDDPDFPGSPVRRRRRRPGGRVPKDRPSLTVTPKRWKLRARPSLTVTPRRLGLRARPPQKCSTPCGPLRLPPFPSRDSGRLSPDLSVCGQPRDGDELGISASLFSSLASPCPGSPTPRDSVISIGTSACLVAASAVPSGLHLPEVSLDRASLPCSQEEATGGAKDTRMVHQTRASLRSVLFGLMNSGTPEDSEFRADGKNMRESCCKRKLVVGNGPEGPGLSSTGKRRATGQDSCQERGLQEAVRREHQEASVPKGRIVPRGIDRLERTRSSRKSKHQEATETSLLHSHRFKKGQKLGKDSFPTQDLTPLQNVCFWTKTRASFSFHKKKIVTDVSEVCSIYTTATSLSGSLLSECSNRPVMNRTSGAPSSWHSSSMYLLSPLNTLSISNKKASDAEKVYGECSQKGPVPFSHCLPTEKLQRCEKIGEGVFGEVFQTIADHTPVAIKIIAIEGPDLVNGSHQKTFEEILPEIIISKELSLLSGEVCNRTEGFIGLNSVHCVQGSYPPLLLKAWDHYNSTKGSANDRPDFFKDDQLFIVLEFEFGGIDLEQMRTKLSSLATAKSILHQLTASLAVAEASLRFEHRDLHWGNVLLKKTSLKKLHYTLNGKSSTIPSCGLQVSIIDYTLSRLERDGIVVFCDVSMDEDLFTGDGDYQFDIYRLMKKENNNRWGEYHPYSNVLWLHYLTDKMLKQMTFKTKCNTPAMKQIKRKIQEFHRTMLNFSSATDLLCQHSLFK
T10 sequence (P52333 822-1111 limits assumed): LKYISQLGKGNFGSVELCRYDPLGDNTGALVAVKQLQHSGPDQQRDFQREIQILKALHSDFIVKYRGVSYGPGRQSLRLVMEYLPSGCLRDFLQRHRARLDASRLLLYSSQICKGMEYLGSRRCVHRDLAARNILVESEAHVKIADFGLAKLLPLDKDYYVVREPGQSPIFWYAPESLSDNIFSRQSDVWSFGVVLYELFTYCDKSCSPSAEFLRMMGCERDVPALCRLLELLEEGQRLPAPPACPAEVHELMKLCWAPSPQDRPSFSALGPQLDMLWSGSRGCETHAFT
T1 sequence (Q9Y4K4 whole entry): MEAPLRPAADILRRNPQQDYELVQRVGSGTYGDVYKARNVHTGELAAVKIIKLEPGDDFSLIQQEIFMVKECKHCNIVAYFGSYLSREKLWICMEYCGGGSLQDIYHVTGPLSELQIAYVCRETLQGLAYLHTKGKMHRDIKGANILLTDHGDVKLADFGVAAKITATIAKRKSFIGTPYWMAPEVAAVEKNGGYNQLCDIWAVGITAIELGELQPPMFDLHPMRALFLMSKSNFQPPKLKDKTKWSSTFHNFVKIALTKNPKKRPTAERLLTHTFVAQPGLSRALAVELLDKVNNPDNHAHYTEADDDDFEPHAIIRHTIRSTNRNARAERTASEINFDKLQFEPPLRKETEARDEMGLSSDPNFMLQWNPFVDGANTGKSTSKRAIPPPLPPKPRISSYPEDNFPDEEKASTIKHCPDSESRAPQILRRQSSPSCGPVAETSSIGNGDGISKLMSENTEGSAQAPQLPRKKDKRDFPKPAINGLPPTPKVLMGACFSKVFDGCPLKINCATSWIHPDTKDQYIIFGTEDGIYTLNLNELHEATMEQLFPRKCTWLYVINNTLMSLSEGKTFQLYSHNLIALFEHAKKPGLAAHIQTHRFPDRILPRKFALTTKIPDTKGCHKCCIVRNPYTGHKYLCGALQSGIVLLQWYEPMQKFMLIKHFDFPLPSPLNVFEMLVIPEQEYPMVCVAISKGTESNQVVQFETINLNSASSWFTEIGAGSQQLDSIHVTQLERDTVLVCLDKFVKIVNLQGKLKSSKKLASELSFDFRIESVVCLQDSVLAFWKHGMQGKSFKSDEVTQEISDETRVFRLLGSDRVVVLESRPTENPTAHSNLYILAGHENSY
T2 sequence (Q6XUX3 whole entry): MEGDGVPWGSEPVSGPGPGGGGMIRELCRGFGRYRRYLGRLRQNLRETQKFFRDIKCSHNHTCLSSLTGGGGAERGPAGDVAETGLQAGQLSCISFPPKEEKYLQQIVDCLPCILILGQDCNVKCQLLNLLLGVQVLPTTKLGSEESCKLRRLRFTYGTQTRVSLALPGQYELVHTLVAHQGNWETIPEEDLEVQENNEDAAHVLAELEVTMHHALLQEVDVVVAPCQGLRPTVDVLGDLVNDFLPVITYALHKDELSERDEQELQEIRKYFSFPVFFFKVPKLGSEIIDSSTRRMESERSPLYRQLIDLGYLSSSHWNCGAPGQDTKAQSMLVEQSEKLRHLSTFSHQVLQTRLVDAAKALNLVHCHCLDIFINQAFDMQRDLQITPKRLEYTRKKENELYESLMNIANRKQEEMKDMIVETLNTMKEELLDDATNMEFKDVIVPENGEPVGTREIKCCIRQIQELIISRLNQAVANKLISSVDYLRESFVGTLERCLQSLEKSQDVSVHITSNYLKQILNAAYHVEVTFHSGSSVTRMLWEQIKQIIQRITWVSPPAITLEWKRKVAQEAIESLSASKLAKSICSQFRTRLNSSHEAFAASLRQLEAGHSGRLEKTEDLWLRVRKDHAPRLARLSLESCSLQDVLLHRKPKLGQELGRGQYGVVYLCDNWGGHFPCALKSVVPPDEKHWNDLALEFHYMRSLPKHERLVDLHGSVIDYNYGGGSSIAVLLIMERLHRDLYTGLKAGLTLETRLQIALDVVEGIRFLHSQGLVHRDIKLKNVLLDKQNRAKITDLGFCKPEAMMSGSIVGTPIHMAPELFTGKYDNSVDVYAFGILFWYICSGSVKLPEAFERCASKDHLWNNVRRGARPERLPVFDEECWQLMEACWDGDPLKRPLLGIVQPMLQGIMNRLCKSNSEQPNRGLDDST
T17 sequence (P29597 897-1176 limits assumed): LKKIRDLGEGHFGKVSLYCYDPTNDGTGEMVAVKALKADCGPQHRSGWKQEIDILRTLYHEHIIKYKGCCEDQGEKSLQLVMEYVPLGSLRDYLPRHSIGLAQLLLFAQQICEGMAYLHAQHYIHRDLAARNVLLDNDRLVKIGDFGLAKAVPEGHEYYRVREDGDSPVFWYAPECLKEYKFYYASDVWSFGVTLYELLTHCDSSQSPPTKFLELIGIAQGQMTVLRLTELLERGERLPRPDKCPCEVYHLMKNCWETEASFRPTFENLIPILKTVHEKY
T14 sequence (O75582 426-687 limits assumed): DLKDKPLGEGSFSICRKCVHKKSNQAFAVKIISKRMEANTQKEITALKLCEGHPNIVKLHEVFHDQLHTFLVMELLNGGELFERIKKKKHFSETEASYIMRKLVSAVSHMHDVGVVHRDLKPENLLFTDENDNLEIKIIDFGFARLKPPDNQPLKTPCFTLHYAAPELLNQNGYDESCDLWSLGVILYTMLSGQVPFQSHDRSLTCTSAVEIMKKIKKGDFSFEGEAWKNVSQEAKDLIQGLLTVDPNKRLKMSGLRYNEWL
T15 sequence (Q9H093 whole entry): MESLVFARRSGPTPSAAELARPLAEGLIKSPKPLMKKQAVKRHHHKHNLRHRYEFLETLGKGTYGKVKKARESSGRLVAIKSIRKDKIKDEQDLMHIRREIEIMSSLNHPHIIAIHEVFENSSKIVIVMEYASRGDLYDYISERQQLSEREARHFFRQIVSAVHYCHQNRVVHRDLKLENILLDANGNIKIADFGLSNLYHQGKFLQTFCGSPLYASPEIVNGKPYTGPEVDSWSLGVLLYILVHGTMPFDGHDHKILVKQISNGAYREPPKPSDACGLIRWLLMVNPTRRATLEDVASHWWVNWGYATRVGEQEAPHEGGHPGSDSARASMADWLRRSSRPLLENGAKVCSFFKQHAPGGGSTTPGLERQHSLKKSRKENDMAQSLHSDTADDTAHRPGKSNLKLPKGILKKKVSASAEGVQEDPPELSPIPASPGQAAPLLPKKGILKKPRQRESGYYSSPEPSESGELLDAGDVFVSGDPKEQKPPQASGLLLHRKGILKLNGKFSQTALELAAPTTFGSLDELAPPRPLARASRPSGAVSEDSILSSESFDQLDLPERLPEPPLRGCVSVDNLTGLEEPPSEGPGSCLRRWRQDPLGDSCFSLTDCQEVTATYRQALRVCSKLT
T7 sequence (Q9UQ88 whole entry): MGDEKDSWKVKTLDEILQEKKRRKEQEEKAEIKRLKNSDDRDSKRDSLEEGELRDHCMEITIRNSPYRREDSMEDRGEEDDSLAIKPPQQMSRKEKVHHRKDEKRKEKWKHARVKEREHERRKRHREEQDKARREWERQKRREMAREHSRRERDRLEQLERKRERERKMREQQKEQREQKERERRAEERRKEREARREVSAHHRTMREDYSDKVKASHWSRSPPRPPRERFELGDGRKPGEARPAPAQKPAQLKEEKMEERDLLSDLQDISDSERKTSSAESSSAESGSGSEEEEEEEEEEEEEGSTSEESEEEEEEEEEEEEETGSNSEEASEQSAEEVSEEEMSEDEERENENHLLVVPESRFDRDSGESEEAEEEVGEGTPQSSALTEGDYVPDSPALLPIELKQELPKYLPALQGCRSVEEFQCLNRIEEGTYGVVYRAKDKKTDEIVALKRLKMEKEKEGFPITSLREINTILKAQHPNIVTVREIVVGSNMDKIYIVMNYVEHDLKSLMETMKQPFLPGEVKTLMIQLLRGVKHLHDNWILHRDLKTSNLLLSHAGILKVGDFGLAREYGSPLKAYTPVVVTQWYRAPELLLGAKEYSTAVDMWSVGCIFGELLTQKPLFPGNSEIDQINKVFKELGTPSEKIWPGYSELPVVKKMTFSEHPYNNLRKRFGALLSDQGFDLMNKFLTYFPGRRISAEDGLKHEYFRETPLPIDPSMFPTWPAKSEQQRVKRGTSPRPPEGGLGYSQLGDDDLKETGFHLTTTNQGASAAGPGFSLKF

In the case of `CC(C)(O)C#Cc1ccc2[nH]c3c(c2c1)-c1nc(N)ncc1CCC3` [AMG28, reference compound], the “MAP4K5 % control at 1000nM / DiscoverX PoC value” [1] is listed as 6.6 % control, the “RIPK5 % control at 1000nM / DiscoverX PoC value” [2] is listed as 2.2 % control and the TTBK1 activity remaining [3] is listed as 8%. For the same compound, the TTBK2 activity remaining [4] was 12% and the IC50 [5] was […].

For `CC(C)(O)C#Cc1ccc2[nH]c3c(c2c1)-c1nc(N)ncc1CC3` [Compound 1], the “CDK11 % control at 1000nM” value [6] was 4.7 % control, the “CDK8 % control at 1000nM” value [7] was 4.8 % control and the “HASPIN % control at 1000nM” value [8] was 0.3 % control.

In the case of `CC(C)(O)C#Cc1ccc2[nH]cc(-c3ccnc(N)n3)c2c1` [Compound 3], the Kinetic solubility [9] is reported as 133 µM, the “CDC2L1 % control at 1000nM” value [10] is reported as 4.3 % control and the “CDC2L2 % control at 1000nM” value [11] is reported as 6.6 % control. The “GRK2 % control at 1000nM” value [12] was 9.1 % control, the “HIPK1 % control at 1000nM” value [13] was 9.4 % control and the “JAK3(JH1domain-catalytic) % control at 1000nM” value [14] was 1.8 % control. The “NIK % control at 1000nM” value [15] was 9.4 % control, the “PRKD2 % control at 1000nM” value [16] was 8.3 % control and the “PRKD3 (PKD3) % control at 1000nM / DiscoverX PoC value” [17] was 1.3 % control. For the same compound, the “RPS6KA5(Kin.Dom.2-C-terminal) % control at 1000nM” value [18] was 8.9 % control, the “SNARK % control at 1000nM” value [19] was 1.7 % control and the “TSSK3 % control at 1000nM / DiscoverX PoC value” [20] was 8.1 % control. The “TYK2(JH1domain-catalytic) % control at 1000nM” value [21] was 6.3 % control.
